Source: patent US9593149B2, “Amylin and calcitonin receptor agonist” (Novo Nordisk A/S, priority 2014, dated 2017)
In brackets after ≈: the same amount, converted by molar mass. Numbered stars: 1 amine (or outer) side, 2 acyl side, 3 side chain; on linkers, the order of the positions; unused ones are H or OH. Peptide text beside a SMILES is read from it. * marks the point of attachment. C20 diacid = O=C(O)CCCCCCCCCCCCCCCCCCC(=O)*; γGlu = O=C(O)[C@H](CCC(=O)[*:2])N[*:1]; AEEA = NCCOCCOCC(=O)O

Experiments:
rat calcitonin receptor = target: T1, rat calcitonin receptor (Rattus norvegicus, UniProt P32214); assay: Assay (VIII) binding to the rat calcitonin receptor; details: membranes; read-out: rCT-R binding IC50
T1 construct: expressed in transfected cells; host or cells: BHK tk'ts 13 (transient, FuGENE 6)
T1 sequence (P32214 25-479 isoform P32214-2 limits assumed): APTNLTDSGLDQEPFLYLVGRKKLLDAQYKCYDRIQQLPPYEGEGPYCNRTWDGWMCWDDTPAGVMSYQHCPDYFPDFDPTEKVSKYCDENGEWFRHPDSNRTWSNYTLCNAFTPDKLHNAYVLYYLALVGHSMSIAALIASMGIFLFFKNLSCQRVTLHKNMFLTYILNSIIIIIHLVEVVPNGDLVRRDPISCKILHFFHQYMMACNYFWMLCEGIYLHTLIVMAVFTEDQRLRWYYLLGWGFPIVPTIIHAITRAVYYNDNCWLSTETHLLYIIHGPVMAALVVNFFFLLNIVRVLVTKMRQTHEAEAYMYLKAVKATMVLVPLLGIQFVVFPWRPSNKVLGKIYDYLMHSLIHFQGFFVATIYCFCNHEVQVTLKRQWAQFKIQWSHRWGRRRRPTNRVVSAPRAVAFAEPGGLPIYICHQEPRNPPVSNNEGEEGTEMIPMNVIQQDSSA
Description: The morning after, the plates were washed three times in HBSS (4° C.), and lyzed in Lysis buffer (0.1 M NaOH), 1% SDS. Scintillation cocktail (MicroScint40®) was added and the plates were shaken at 500 rpm for a short period. The plate was incubated at room temperature in the dark for 1 hour and Read on a TopCounter™ (Packard). The IC50 was calculated using (one site binding competition analysis) GraphPad Prism5 as a measure of receptor affinity. Assay (VIII)—Determination of Binding to the Rat Calcitonin Receptor
The assay was performed as described above (Assay (VII)—Determination of binding to the human calcitonin receptor) with the exception that we used membranes prepared from BHK tk'ts 13 cells that were transiently transfected with the rat calcitonin receptor. The BHK tk'ts 13 cells were transiently transfected with rat calcitonin receptor using FuGENE® 6 (Roche), according to the manufacturer's recommendations. Cells were grown in DMEM with 10% FBS and 1% Pen/Strep.

[1] = Assay (IV) determination of solubility; assay type: physicochemical
Description: Assay (IV)—Determination of Solubility
The mimylin peptide was dissolved in water at ˜500 nmol/ml and mixed 1:1 with a series of buffers (100 mM glycylglycine pH 3.0, 100 mM glycylglycine pH 4.0, 100 mM glycylglycine pH 5.0, 100 mM bistrispropane pH 6.0, 100 mM bistrispropane pH 6.5, 100 mM bistrispropane pH 7.0, 100 mM bistrispropane pH 7.5, 100 mM bistrispropane pH 8.0).

| SMILES | IC50 (rat calcitonin receptor) [pM] | Solubility ([1]; pH 3.0) | Solubility ([1]; pH 4.0) | solubility at 18 h ([1]; pH 5.0) [µM] | Solubility ([1]; pH 6.0) | Solubility ([1]; pH 6.5) | Solubility ([1]; pH 7.0) | Solubility ([1]; pH 7.5) | Solubility ([1]; pH 8.0) | solubility at 18 h ([1]; pH 4.0) [µM] | Solubility ([1]; pH 5.0) |
| --- | --- | --- | --- | --- | --- | --- | --- | --- | --- | --- | --- |
| CC(C)C[C@H](NC(=O)CNC(=O)[C@H](CO)NC(=O)[C@H](C)NC(=O)CC[C@H](NC(=O)CCCCCCCCCCCCCCCCCCC(=O)O)C(=O)O)C(=O)N[C@@H](CO)C(=O)N[C@H](C(=O)N[C@@H](C)C(=O)N[C@H](C(=O)N[C@@H](CC(C)C)C(=O)NCC(=O)N[C@@H](CCCNC(=N)N)C(=O)N[C@@H](CC(C)C)C(=O)N[C@@H](CO)C(=O)N[C@@H](CCC(N)=O)C(=O)N[C@@H](CCC(=O)O)C(=O)N[C@@H](CC(C)C)C(=O)N[C@@H](Cc1cnc[nH]1)C(=O)N[C@@H](CCC(=O)O)C(=O)N[C@@H](CC(C)C)C(=O)N[C@@H](CCC(N)=O)C(=O)N[C@H](C(=O)N[C@@H](Cc1ccc(O)cc1)C(=O)N1CCC[C@H]1C(=O)N1CCC[C@H]1C(=O)N[C@H](C(=O)N[C@@H](CCC(=O)O)C(=O)N[C@H](C(=O)NCC(=O)N[C@@H](CO)C(=O)NCC(=O)N[C@H](C(=O)N[C@@H](Cc1ccc(O)cc1)C(N)=O)[C@@H](C)O)[C@@H](C)O)[C@@H](C)O)[C@@H](C)O)[C@@H](C)O)[C@@H](C)O [compound 128, [N-terminal(C20 diacid-gGlu), des1, 4G, 9T, 15Q, 21Q, 23Y, 25P, 30S, 31G, 32T, 33Y]mimylin] ({C20 diacid-γGlu}-ASGLSTATLGRLSQELHELQTYPPTETGSGTY-NH2) | 28 | ≧200 μM | – | – | ≧200 μM | ≧200 μM | ≧200 μM | ≧200 μM | ≧200 μM | 25 (≈ 95.5 µg/mL) | ≧200 μM |
| CC(C)C[C@H](NC(=O)CNC(=O)[C@H](CO)NC(=O)[C@H](C)NC(=O)CC[C@H](NC(=O)CCCCCCCCCCCCCCCCCCC(=O)O)C(=O)O)C(=O)N[C@@H](CO)C(=O)N[C@H](C(=O)N[C@@H](C)C(=O)N[C@H](C(=O)N[C@@H](CC(C)C)C(=O)NCC(=O)N[C@@H](CCCNC(=N)N)C(=O)N[C@@H](CC(C)C)C(=O)N[C@@H](CO)C(=O)N[C@@H](CCC(N)=O)C(=O)N[C@@H](CCC(=O)O)C(=O)N[C@@H](CC(C)C)C(=O)N[C@@H](Cc1cnc[nH]1)C(=O)N[C@@H](CCC(=O)O)C(=O)N[C@@H](CC(C)C)C(=O)N[C@@H](CCC(N)=O)C(=O)N[C@H](C(=O)N[C@@H](Cc1ccc(O)cc1)C(=O)N1CCC[C@H]1C(=O)N[C@@H](CCCNC(=N)N)C(=O)N[C@H](C(=O)N[C@@H](CCC(=O)O)C(=O)N[C@H](C(=O)NCC(=O)N[C@@H](CO)C(=O)N[C@@H](CCC(N)=O)C(=O)N[C@H](C(=O)N[C@@H](Cc1ccc(O)cc1)C(N)=O)[C@@H](C)O)[C@@H](C)O)[C@@H](C)O)[C@@H](C)O)C(C)C)[C@@H](C)O [compound 119, [N-terminal(C20 diacid-gGlu), des1, 4G, 9V, 15Q, 21Q, 23Y, 30S, 31Q, 32T, 33Y]mimylin] ({C20 diacid-γGlu}-ASGLSTAVLGRLSQELHELQTYPRTETGSQTY-NH2) | 16 | ≧200 μM | – | 56 (≈ 221 µg/mL) | ≧200 μM | ≧200 μM | ≧200 μM | ≧200 μM | ≧200 μM | 170 (≈ 671 µg/mL) | – |
| CC(C)C[C@H](NC(=O)[C@H](CCCNC(=N)N)NC(=O)CNC(=O)[C@H](CC(C)C)NC(=O)[C@@H](NC(=O)[C@H](C)NC(=O)[C@@H](NC(=O)[C@H](CO)NC(=O)[C@H](CC(C)C)NC(=O)[C@H](CCC(N)=O)NC(=O)[C@H](CO)NC(=O)[C@H](C)NC(=O)CC[C@H](NC(=O)CCCCCCCCCCCCCCCCCCC(=O)O)C(=O)O)[C@@H](C)O)C(C)C)C(=O)N[C@@H](CO)C(=O)N[C@@H](CCC(N)=O)C(=O)N[C@@H](CCCNC(=N)N)C(=O)N[C@@H](CC(C)C)C(=O)N[C@@H](Cc1cnc[nH]1)C(=O)N[C@@H](CCCNC(=N)N)C(=O)N[C@@H](CC(C)C)C(=O)N[C@@H](CCC(N)=O)C(=O)N[C@H](C(=O)N[C@@H](Cc1ccc(O)cc1)C(=O)N1CCC[C@H]1C(=O)N[C@@H](CCCNC(=N)N)C(=O)N[C@H](C(=O)N[C@@H](CCC(N)=O)C(=O)N[C@H](C(=O)NCC(=O)N[C@@H](CO)C(=O)N[C@@H](CCC(N)=O)C(=O)N[C@H](C(=O)N[C@@H](Cc1ccc(O)cc1)C(N)=O)[C@@H](C)O)[C@@H](C)O)[C@@H](C)O)[C@@H](C)O [compound 132, [N-terminal(C20 diacid-gGlu), des1, 4Q, 9V, 15Q, 16R, 19R, 21Q, 23Y, 27Q, 30S, 31Q, 32T, 33Y]mimylin] ({C20 diacid-γGlu}-ASQLSTAVLGRLSQRLHRLQTYPRTQTGSQTY-NH2) | 69 | – | – | – | – | – | – | – | – | – | – |

Results, then the compound that gave them:

| IC50 (rat calcitonin receptor) [pM] | Solubility ([1]; pH 3.0) | Solubility ([1]; pH 4.0) | solubility at 18 h ([1]; pH 5.0) [µM] | Solubility ([1]; pH 6.0) | Solubility ([1]; pH 6.5) | Solubility ([1]; pH 7.0) | Solubility ([1]; pH 7.5) | Solubility ([1]; pH 8.0) | solubility at 18 h ([1]; pH 4.0) [µM] | Solubility ([1]; pH 5.0) | SMILES |
| --- | --- | --- | --- | --- | --- | --- | --- | --- | --- | --- | --- |
| 12 | ≧200 μM | ≧200 μM | 7 (≈ 27.4 µg/mL) | ≧200 μM | ≧200 μM | ≧200 μM | ≧200 μM | ≧200 μM | – | – | CC(C)C[C@H](NC(=O)CNC(=O)[C@H](CO)NC(=O)[C@H](C)NC(=O)CC[C@H](NC(=O)CCCCCCCCCCCCCCCCCCC(=O)O)C(=O)O)C(=O)N[C@@H](CO)C(=O)N[C@H](C(=O)N[C@@H](C)C(=O)N[C@@H](C)C(=O)N[C@@H](CC(C)C)C(=O)NCC(=O)N[C@@H](CCCNC(=N)N)C(=O)N[C@@H](CC(C)C)C(=O)N[C@@H](CO)C(=O)N[C@@H](CCC(N)=O)C(=O)N[C@@H](CCC(=O)O)C(=O)N[C@@H](CC(C)C)C(=O)N[C@@H](Cc1cnc[nH]1)C(=O)N[C@@H](CCC(=O)O)C(=O)N[C@@H](CC(C)C)C(=O)N[C@@H](CCC(N)=O)C(=O)N[C@H](C(=O)N[C@@H](Cc1ccc(O)cc1)C(=O)N1CCC[C@H]1C(=O)N[C@@H](CCCNC(=N)N)C(=O)N[C@H](C(=O)N[C@@H](CCC(=O)O)C(=O)N[C@H](C(=O)NCC(=O)N[C@@H](CO)C(=O)N[C@@H](CCC(N)=O)C(=O)N[C@H](C(=O)N[C@@H](Cc1ccc(O)cc1)C(N)=O)[C@@H](C)O)[C@@H](C)O)[C@@H](C)O)[C@@H](C)O)[C@@H](C)O [compound 109, [N-terminal(C20 diacid-gGlu), des1, 4G, 15Q, 21Q, 23Y, 30S, 31Q, 32T, 33Y]mimylin] ({C20 diacid-γGlu}-ASGLSTAALGRLSQELHELQTYPRTETGSQTY-NH2) |
| 44 | ≧200 μM | ≧200 μM | – | ≧200 μM | ≧200 μM | ≧200 μM | ≧200 μM | ≧200 μM | – | ≧200 μM | CC(C)C[C@H](NC(=O)[C@H](C)NC(=O)[C@H](C)NC(=O)[C@@H](NC(=O)[C@H](CO)NC(=O)[C@H](CC(C)C)NC(=O)[C@H](CCC(=O)O)NC(=O)[C@H](CO)NC(=O)[C@H](C)NC(=O)COCCOCCNC(=O)CC[C@H](NC(=O)CCCCCCCCCCCCCCCCCCC(=O)O)C(=O)O)[C@@H](C)O)C(=O)NCC(=O)N[C@@H](CCCNC(=N)N)C(=O)N[C@@H](CC(C)C)C(=O)N[C@@H](CO)C(=O)N[C@@H](C)C(=O)N[C@@H](CCC(=O)O)C(=O)N[C@@H](CC(C)C)C(=O)N[C@@H](Cc1cnc[nH]1)C(=O)N[C@@H](CCC(=O)O)C(=O)N[C@@H](CC(C)C)C(=O)N[C@@H](C)C(=O)N[C@H](C(=O)N[C@@H](CC(C)C)C(=O)N1CCC[C@H]1C(=O)N[C@@H](CCCNC(=N)N)C(=O)N[C@H](C(=O)N[C@@H](CCC(=O)O)C(=O)N[C@H](C(=O)NCC(=O)N[C@@H](CO)C(=O)NCC(=O)N[C@@H](CO)C(=O)N1CCC[C@H]1C(N)=O)[C@@H](C)O)[C@@H](C)O)[C@@H](C)O [compound 41, [N-terminal(C20 diacid-gGlu-OEG), des1, 30S, 31G]mimylin] ({C20 diacid-γGlu-AEEA}-ASELSTAALGRLSAELHELATLPRTETGSGSP-NH2) |
